According to BindingDB's records for doi:10.1016/j.bmc.2020.115622 (Kyowa Kirin, 2020):

Experiment: Inhibition of chemR23 expressed in human CAL1 cells assessed as reduction in chemerin-induced chemotaxis incubated for 4 hrs by cell counting based CellTiter-Glo assay

SMILES	IC50 [nM]
Cc1ccc(-c2nc(=O)o[nH]2)c(-c2ccc([C@@H](C)N(CC3CC3)c3nc4c(C(=O)O)cccc4o3)cc2)c1	63
CCCCN(c1nc2c(C(=O)O)cccc2o1)[C@H](C)c1ccc(-c2cc(Cl)ccc2-c2nc(=O)o[nH]2)cc1	235
